Data as given in patent publication US10227331B2 (priority 2015, dated 2019).
Counter-ions that a name gives are not always drawn. Like-named read-outs stand apart in the source and are kept apart here.

How the values were obtained:
[1] = tested on: P. aeruginosa expressing IMP-1, efflux+ (MB9798); assay type: cell-based, Pseudomonas aeruginosa; details: for P. aeruginosa expressing IMP-1, efflux+ (MB9798) MITC95: imipenem at 2 μg/mL, in the presence of a class A, C, D serine β-lactamase inhibitor closely related to relebactam; for Efflux ratio: ratio MITC95 PA_9798/MITC95 PA_9799
From the text: (§1) The strain background is Pseudomonas aeruginosa PAO1.

[2] = tested on: Escherichia coli expressing NDM-1 (CLB30005, CLB30016); assay type: cell-based; details: with imipenem 1 μg/ml, 95% inhibition of bacterial growth; for Escherichia coli MITC95: NDM-1 (CLB30016)
Method in brief: (§2)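 Colonies from overnight 35 °C blood-agar cultures were suspended in saline, diluted 1:100 into 1.1× CAMHB and exposed to test compound with or without imipenem at 1 μg/ml. After 22–24 h at 35 °C, absorbance was read to find the concentration restoring imipenem susceptibility.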

[3] = tested on: Serratia marcescens expressing IMP-1 (CL5741); assay type: cell-based; details: with imipenem 1 μg/ml, 95% inhibition of bacterial growth; for Serratia marcescens MITC95: IMP-1 (CL5741)
Method in brief: as §2

[4] = tested on: Klebsiella pneumoniae expressing VIM-1 (IHMA599644); assay type: cell-based; details: with imipenem 1 μg/ml, 95% inhibition of bacterial growth; for Klebsiella pneumoniae MITC95: VIM-1 (IHMA599644)
Method in brief: as §2

[5] = target: IMP-1 (Serratia marcescens, UniProt P52699); assay: biochemical; assay type: biochemical
Sequence of IMP-1 (P52699 whole entry, looked up, species assumed): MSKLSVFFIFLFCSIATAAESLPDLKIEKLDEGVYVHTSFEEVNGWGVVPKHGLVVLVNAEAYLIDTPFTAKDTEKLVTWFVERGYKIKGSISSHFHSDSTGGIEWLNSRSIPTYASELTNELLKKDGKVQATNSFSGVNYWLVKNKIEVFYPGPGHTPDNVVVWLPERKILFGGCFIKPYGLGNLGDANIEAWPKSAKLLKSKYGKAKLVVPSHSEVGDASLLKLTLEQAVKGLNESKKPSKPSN
Method in brief: (§3)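 Inhibitor was mixed with the metallo-β-lactamase and CCF2-FA. After 2 hours at 25° C, fluorescence of the coumarin–fluorescein cephalosporin substrate was read. IC50 was calculated with a 4-parameter fit.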

[6] = target: NDM-1 (Klebsiella pneumoniae, UniProt C7C422); assay: biochemical; assay type: biochemical; details: CCF2-FA substrate, 2 hours at 25° C; read-out: NDM-1 IC50
Sequence of NDM-1 (C7C422 whole entry, looked up, species assumed): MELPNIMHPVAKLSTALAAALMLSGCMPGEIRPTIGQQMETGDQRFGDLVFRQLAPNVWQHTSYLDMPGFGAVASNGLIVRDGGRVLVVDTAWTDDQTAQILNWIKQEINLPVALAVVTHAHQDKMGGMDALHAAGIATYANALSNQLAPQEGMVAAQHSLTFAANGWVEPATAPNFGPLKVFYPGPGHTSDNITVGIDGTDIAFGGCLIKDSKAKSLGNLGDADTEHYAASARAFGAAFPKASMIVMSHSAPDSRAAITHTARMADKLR
Method in brief: as §3

[7] = target: VIM-1 (Pseudomonas aeruginosa (strain ATCC 15692 / DSM 22644 / CIP 104116 / JCM 14847 / LMG 12228 / 1C / PRS 101 / PAO1), UniProt A0A0F7KYQ8); assay: biochemical; details: CCF2-FA substrate, 2 hours at 25° C
Method in brief: as §3

[8] = tested on: P. aeruginosa expressing IMP-1, efflux− (MB9799); assay: Efflux: concentration of MBL inhibitor which restores susceptibility to imipenem; assay type: cell-based, Pseudomonas aeruginosa; details: imipenem at 2 μg/mL, in the presence of a class A, C, D serine β-lactamase inhibitor closely related to relebactam
From the text: as §1

[9] = CCF2-FA substrate, 2 hours at 25° C, read-out: IMP-1 IC50

SMILES | P. aeruginosa expressing IMP-1, efflux+ (MB9798) MITC95 [1] [µM] | Efflux ratio [1] | Escherichia coli MITC95 [2] [µM] | Serratia marcescens MITC95 [3] [µM] | Klebsiella pneumoniae MITC95 [4] [µM] | IC50 [5, 9] [nM] | IC50 [6] [nM] | IC50 [7] [nM] | P. aeruginosa expressing IMP-1, efflux− (MB9799) MITC95 [8] [µM] | Escherichia coli expressing NDM-1 (CLB30016) MITC95 [2] [µM] | Serratia marcescens expressing IMP-1 (CL5741) MITC95 [3] [µM] | Klebsiella pneumoniae expressing VIM-1 (IHMA599644) MITC95 [4] [µM] | IC50 [5] [nM]
C[C@H](N)CS(=O)(=O)c1ccc(-c2cccc3[nH]cnc23)c(-c2nn[nH]n2)c1S(N)(=O)=O [Example 355] | 3.125 | 2.00 | 1.563 | 1.563 | 3.125 | 0.327 | 0.165 | 0.165 | 1.563 |  |  |  | 
NS(=O)(=O)c1c(S(=O)(=O)C2CNC2)ccc(C2CCOCC2)c1-c1nn[nH]n1 [Example 222, 6-(azetidin-3-ylsulfonyl)-3-(tetrahydro-2H-pyran-4-yl)-2-(2H-tetrazol-5-yl)benzenesulfonamide] | 100 | 63.98 |  |  |  | 4.3 | 1.49 | 2.45 | 1.563 | 3.125 | 3.125 | 3.125 | 
NCCS(=O)(=O)c1ccc(-c2cncc3sc(N)nc23)c(-c2nn[nH]n2)c1S(N)(=O)=O [Example 81, 6-((2-aminoethyl)sulfonyl)-3-(2-aminothiazolo[5,4-c]pyridin-7-yl)-2-(2H-tetrazol-5-yl)benzenesulfonamide hydrochloride] | 0.7813 | 1.00 |  |  |  |  | 0.29 | 0.356 | 0.7813 | 0.7813 | 1.563 | 3.125 | 0.266
CC(C)(N)CS(=O)(=O)c1ccc(-c2cccc3sc(N)nc23)c(-c2nn[nH]n2)c1S(N)(=O)=O [Example 94, 6-(2-amino-2-methylpropylsulfonyl)-3-(2-aminobenzo[d]thiazol-4-yl)-2-(2H-tetrazol-5-yl)benzenesulfonamide] | 3.125 | 2.00 |  |  |  | 0.504 | 0.206 | 0.222 | 1.563 | 0.7813 | 1.563 | 3.125 | 
NCCS(=O)(=O)c1ccc(-c2cnn3c2CCC3)c(-c2nnn[nH]2)c1S(N)(=O)=O.O=C(O)C(F)(F)F [Example 152, 2-((4-(5,6-dihydro-4H-pyrrolo[1,2-b]pyrazol-3-yl)-2-sulfamoyl-3-(1H-tetrazol-5-yl)phenyl)sulfonyl)ethanaminium 2,2,2-trifluoroacetate] | 50 | 31.99 |  |  |  | 4.79 | 5.83 | 2.01 | 1.563 | 3.125 | 6.25 | 6.25 | 
NS(=O)(=O)c1c(S(=O)(=O)C2CNC2)ccc(-c2ccc3scnc3c2)c1-c1nnn[nH]1.O=C(O)C(F)(F)F [Example 114, 3-((4-(benzo[d]thiazol-5-yl)-2-sulfamoyl-3-(1H-tetrazol-5-yl)phenyl)sulfonyl)azetidin-1-ium 2,2,2-trifluoroacetate] | 6.25 | 8.00 |  |  |  | 0.261 | 0.15 | 0.116 | 0.7813 | 0.3906 | 0.7813 | 1.563 | 
NCCS(=O)(=O)c1ccc(-c2cccc(-c3c[nH]c(N)n3)c2)c(-c2nnn[nH]2)c1S(N)(=O)=O [Example 346, 3′-(2-Amino-1H-imidazol-4-yl)-4-((2-aminoethyl)sulfonyl)-2-(1H-tetrazol-5-yl)-[1,1′-biphenyl]-3-sulfonamide] | 6.25 | 8.00 | 0.3906 | 1.563 | 1.563 | 1.97 | 0.518 | 0.931 | 0.7813 |  |  |  | 
